Patent publication US20130288897A1, “SYNERGISTIC PESTICIDAL COMPOSITIONS” (Dow AgroSciences LLC, priority 2012, published 2013)
Values joined by “and” are separate entries in the source; they are usually repeats but may differ in a detail not shown here. Equal entries are not always repeated.

How the values were obtained:
Assay type in all cases: in vivo
[1] = tested on: cotton aphid (CA) Aphis gossypii; test: Cotton aphid track-sprayer test on cotton: Compound A or imidacloprid with Durango (glyphosate) or Durango Blank and AMS (Example XVI); settings: for % Control (Negatives to zero) Ave / % control Ave / Colbv predicted values Ave: average of 5 reps
Method: Glyphosate resistant cotton plants (Gossypium hirsutum, cv ‘DP493’) were trimmed to 1 true leaf and infested with mixed stages of cotton aphid (CA) Aphis gossypii 24 h prior to application. Mixed developmental stage CA were infested onto the upper surface of each treated leaf by transferring infested foliage from an insectary colony. Each plant was infested with approximately equal numbers of CA based on visual estimation of aphid density on the infested material. Infested plants were held in the growth chamber (L:D 16:8 and 25° C.). Glyphosate (Durango®, Dow AgroSciences, LLC, Indianapolis, Ind.) was mixed with water at a rate equivalent to 15 ml/L (1.2 qt/Ac). […] A glyphosate free formulation of Durango® was prepared using these same mixing instructions. […] High rate Compound A concentrations were created by diluting Compound A technical material with acetone to achieve a 10 ppm solution. […] […] […] Nozzle height above the canopy was held constant at ca. 30 cm. Plants were evaluated after 3 days from the time of infestation by counting all live cotton aphids on each plant.
[…] Percent control for all treatments was calculated using the rep average for the untreated plants.

[2] = tested on: cotton aphid (CA) Aphis gossypii; test: Cotton aphid track-sprayer test on cotton: Compound A or imidacloprid with glufosinate (Liberty) and AMS (Example XVII); settings: for Colby Predicted Values Ave: combination with glufosinate
Method: (§1) Glyphosate resistant cotton plants (Gossypium hirsutum, cv ‘DP493’) were trimmed to 1 true leaf and infested with mixed stages of cotton aphid (CA) Aphis gossypii 24 h prior to application. Mixed developmental stage CA were infested onto the upper surface of each treated leaf by transferring infested foliage from an insectary colony. Each plant was infested with approximately equal numbers of CA based on visual estimation of aphid density on the infested material. Infested plants were held in the growth chamber (L:D 16:8 and 25° C.). Glufosinate (Liberty®, Bayer CropScience, Monheim am Rhein, Germany) was mixed with water at a rate equivalent to 5 ml/L (0.4 qt/Ac). […] High rate Compound A concentrations were created by diluting Compound A technical material with acetone to achieve a 10 ppm solution. […] […] […] Nozzle height above the canopy was held constant at ca. 30 cm. Plants were evaluated after 3 days from the time of infestation by counting all live cotton aphids on each plant.
TABLE 6 contains the calculated Colby values for combinations of treatments as well as the outcome of statistical evaluations between predicted (Colby) and actual measured values. These T-test statistics were only calculated for the 0.2 and 0.05 g/Ha rates. […] These same trends were apparent when Compound A was applied with both glufosinate and AMS.

[3] = tested on: cotton aphid (CA) Aphis gossypii; test: Cotton aphid track-sprayer test on cotton: Compound A with glufosinate (Liberty) and AMS, rates 0.4, 0.1 and 0.025 g/Ha (Example XVIII); settings: for % control Negatives to zero / CA Counts / Colby Predicted Values: Rep 1-6
Method: as §1, with “24 hours” for “24 h”, “a 20” for “a 10”

[4] = 0.0125 g insecticide/Ha with Durango 0.015 ml/ml + AMS 18 g/L
[5] = 0.0125 g insecticide/Ha with Durango 0.015 ml/ml
[6] = 0.0125 g insecticide/Ha with Durango Blank 0.015 ml/ml + AMS 18 g/L
[7] = 0.0125 g insecticide/Ha with Durango Blank 0.015 ml/ml
[8] = 0.05 g insecticide/Ha with Durango 0.015 ml/ml + AMS 18 g/L
[9] = 0.05 g insecticide/Ha with Durango 0.015 ml/ml
[10] = 0.05 g insecticide/Ha with Durango Blank 0.015 ml/ml + AMS 18 g/L
[11] = 0.05 g insecticide/Ha with Durango Blank 0.015 ml/ml
[12] = 0.2 g insecticide/Ha with Durango 0.015 ml/ml + AMS 18 g/L
[13] = 0.2 g insecticide/Ha with Durango 0.015 ml/ml
[14] = 0.2 g insecticide/Ha with Durango Blank 0.015 ml/ml + AMS 18 g/L
[15] = 0.2 g insecticide/Ha with Durango Blank 0.015 ml/ml
[16] = 0.05 g In./HA + Lib. 0.005 ml/ml
[17] = 0.05 g In./HA + Lib. 0.005 ml/ml + AMS 18 g/L
[18] = 0.2 g In./HA + Lib. 0.005 ml/ml
[19] = 0.2 g In./HA + Lib. 0.005 ml/ml + AMS 18 g/L
[20] = 0.8 g In./HA + Lib. 0.005 ml/ml
[21] = 0.8 g In./HA + Lib. 0.005 ml/ml + AMS 18 g/L

## O=[N+]([O-])NC1=NCCN1Cc1ccc(Cl)nc1 [Imidacloprid, imidacloprid, reference compound]
[1]; [4]
  % Control (Negatives to zero) Ave: 26.3%
  % control Ave: 26.3%
  Colbv predicted values Ave: 42.0
[1]; [5]
  % Control (Negatives to zero) Ave: 17.2%
  % control Ave: −0.3%
  Colbv predicted values Ave: 35.1
[1]; [6]
  % Control (Negatives to zero) Ave: 24.7%
  % control Ave: −1.1%
  Colbv predicted values Ave: 51.7
[1]; [7]
  % Control (Negatives to zero) Ave: 15.1%
  % control Ave: −17.6%
  Colbv predicted values Ave: 33.8
[1]; 0.0125 g insecticide/Ha, no herbicide, no AMS
  % control Ave: 15.1%
[1]; 0.05 g insecticide/Ha with Durango 0.015 ml/ml + AMS 18 g/L, Rep 1-5, listed as lmidacloprid
  CA Counts: 49 and 50 and 71 and 64 and 54
[1]; [8]
  % Control (Negatives to zero) Ave: 37.3%
  % control Ave: 37.3%
  Colbv predicted values Ave: 46.5
[1]; [9]
  % Control (Negatives to zero) Ave: 25.4%
  % control Ave: 21.8%
  Colbv predicted values Ave: 38.2
[1]; 0.05 g insecticide/Ha with Durango Blank 0.015 ml/ml + AMS 18 g/L, Rep 1-5, listed as lmidacloprid
  CA Counts: 82 and 81 and 108 and 73 and 95
[1]; [10]
  % Control (Negatives to zero) Ave: 11.2%
  % control Ave: 5.6%
  Colbv predicted values Ave: 58.0
[1]; [11]
  % Control (Negatives to zero) Ave: 24.8%
  % control Ave: 20.1%
  Colbv predicted values Ave: 41.2
[1]; 0.05 g insecticide/Ha, no herbicide, no AMS
  % control Ave: 29.9%
[1]; 0.2 g insecticide/Ha with Durango 0.015 ml/ml + AMS 18 g/L, Rep 1-5, listed as lmidacloprid
  Colbv predicted values: 88.5 and 68.2 and 93.5 and 56.2 and 48.8
[1]; [12]
  % Control (Negatives to zero) Ave: 30.8%
  % control Ave: 23.9%
  Colbv predicted values Ave: 71.0
[1]; 0.2 g insecticide/Ha with Durango 0.015 ml/ml, Rep 1-5, expected additive control, listed as lmidacloprid
  Colbv predicted values: 74.5 and 68.6 and 84.8 and 56.2 and 48.8
[1]; [13]
  % Control (Negatives to zero) Ave: 45.5%
  % control Ave: 45.5%
  Colbv predicted values Ave: 66.6
[1]; 0.2 g insecticide/Ha with Durango Blank 0.015 ml/ml + AMS 18 g/L, Rep 1-5, listed as lmidacloprid
  Colbv predicted values: 96.1 and 88.7 and 75.9 and 68.4 and 48.8
[1]; [14]
  % Control (Negatives to zero) Ave: 32.2%
  % control Ave: 27.3%
  Colbv predicted values Ave: 75.2
[1]; 0.2 g insecticide/Ha with Durango Blank 0.015 ml/ml, Rep 1-5, listed as lmidacloprid
  Colbv predicted values: 84.2 and 67.7 and 71.9 and 56.2 and 48.8
[1]; [15]
  % Control (Negatives to zero) Ave: 55.3%
  % control Ave: 55.3%
  Colbv predicted values Ave: 65.7
[1]; 0.2 g insecticide/Ha, co-applied with AMS and Durango
  synergy assessment (measured vs predicted additive Colby values): antagonism of imidacloprid activity
[1]; 0.2 g insecticide/Ha, no herbicide, no AMS, Rep 1-5, live aphids per plant after 3 days, listed as lmidacloprid
  CA Counts: 30 and 51 and 44 and 32 and 38
[1]; 0.2 g insecticide/Ha, no herbicide, no AMS, Rep 1-5, vs rep average of untreated plants, listed as lmidacloprid
  % control: 74.5% and 50.4% and 61.1% and 56.2% and 48.8%
[1]; 0.2 g insecticide/Ha, no herbicide, no AMS
  % control Ave: 58.2%
[1]; 0.2 g insecticide/Ha, only Durango mixed
  synergy assessment (measured vs predicted additive Colby values): no effects
[1]; 0.2 g insecticide/Ha, with Durango blank and AMS
  synergy assessment (measured vs predicted additive Colby values): antagonistic effect
[1]; 0.2 g insecticide/Ha, with Durango blank formulation
  synergy assessment (measured vs predicted additive Colby values): no significant difference between predicted and measured activity
[2]; 0.0125 g In./Ha + glufosinate 0.005 ml/ml
  % control AVE: 66.5%
[2]; 0.0125 g In./Ha
  Colby Predicted Values Ave: 53.6
[2]; 0.05 g In./Ha + glufosinate 0.005 ml/ml
  % control AVE: 51.2%
[2]; 0.05 g In./Ha
  Colby Predicted Values Ave: 53.8
[2]; 0.2 g In./Ha + glufosinate 0.005 ml/ml
  % control AVE: 58.2%
[2]; 0.2 g In./Ha
  Colby Predicted Values Ave: 59.6
[2]; insecticide applied together with glufosinate
  synergy assessment (measured vs predicted Colby values): not different from the calculated additive values
[2]; insecticide with glufosinate and AMS
  synergy assessment (measured vs predicted Colby values): No evidence of synergy
[3]; [16]
  % Control (Negatives to zero) Ave: 24.3%
  Colby Predicted Values Ave: 45.1
[3]; [17]
  % Control (Negatives to zero) Ave: 76.9%
  Colby Predicted Values Ave: 51.7
  % control Negatives to zero: 84.6% and 71.0% and 86.9% and 48.9% and 79.9% and 89.9%
[3]; 0.05 g In./HA, no Lib., no AMS
  % Control (Negatives to zero) Ave: 19.0%
[3]; [18]
  % Control (Negatives to zero) Ave: 27.0%
  Colby Predicted Values Ave: 54.6
[3]; [19]
  % Control (Negatives to zero) Ave: 54.3%
  Colby Predicted Values Ave: 60.7
[3]; 0.2 g In./HA, no Lib., no AMS
  % Control (Negatives to zero) Ave: 38.7%
[3]; [20]
  % Control (Negatives to zero) Ave: 72.3%
  Colby Predicted Values Ave: 86.1
  % control Negatives to zero: 87.5% and 73.3% and 71.0% and 78.3% and 69.2% and 54.7%
  Colby Predicted Values: 81.9 and 81.5 and 94.8 and 78.1 and 94.0 and 86.3
[3]; [21]
  % Control (Negatives to zero) Ave: 96.5%
  Colby Predicted Values Ave: 88.0
  % control Negatives to zero: 96.7% and 94.4% and 96.0% and 94.2% and 98.3% and 99.7%
  Colby Predicted Values: 86.8 and 83.6 and 95.2 and 78.2 and 94.5 and 89.7
[3]; 0.8 g In./HA, no Lib., no AMS
  % Control (Negatives to zero) Ave: 80.0%
  % control Negatives to zero: 75.5% and 81.5% and 91.6% and 73.2% and 74.2% and 84.3%
[3]; 0.2 g In./Ha + Liberty 0.005 ml/ml
  CA Counts: 187 and 234 and 169 and 198 and 265 and 240
[3]; 0.2 g In./Ha, no Liberty, no AMS
  CA Counts: 154 and 165 and 228 and 241 and 176 and 123
